Assay results: patent publication US6586475B1, “β-amyloid protein production/secretion inhibitors” (Takeda Chemical Industries, Ltd., priority 1998, dated 2003)

Key:
amyloid-β protein Aβ1-42 = assay: Inhibition of production and/or secretion of Aβ1-42 in IMR-32 cells (EIA of supernatant); assay type: cell-based; settings: test compound 10 μM; human neuroblastoma IMR-32 cells, 24 hours; percentage relative to the control
Procedure: (§1) Compounds of the present invention were tested for an inhibitory activity of the production and/or secretion of amyloid-β protein (references: Science, 264, 1336 (1994) and Biochemistry, 34, 10272 (1995)).
(§2) Human neuroblastoma IMR-32 cells: purchased from American Type Culture Center.
(§3) Standard Aβ1-40 and Aβ1-42: purchased from Bachem Co.
(§4) IMR-32 cells were cultivated in a flask (Falcon, 750 ml) containing 10% FCS/DMEM medium, in an atmosphere of 10% CO2/90% air, at 37° C. to be in confluence. The cultured cells were seeded into a 48-well plate in a density of 2.5×10^5 cells/well, and incubated therein for 3 days under the same conditions as above. Then, the culture medium was removed through suction. […]
(§5) BAN-50 antibody or BNT-77 antibody was used as the primary antibody. […] To determined the Aβ1-42, BC-05 was used as the secondary antibody. […]
(§6) The plate was washed three times with PBS, and 100 μl of an HRP-labeled secondary antibody (BA-27 antibody or BC-o5 antibody labeled with HRP: horseradis peroxidase) as dissolved in a buffer for secondary reaction (20 mM phosphate buffer, pH 7.0; 400 mM NaCl; 2 mM EDTA; 1% BSA) was added thereto. […] Then, using a plate reader (MTP-32 Microplate Reader, by Corona Co.), the sample on the plate was subjected to calorimetric determination (at 450 nm). […]

Penetration in brain = settings: in vivo
amyloid-β protein Aβ1-40 = assay: Inhibition of production and/or secretion of Aβ1-40 in IMR-32 cells (EIA of supernatant); assay type: cell-based; settings: test compound 10 μM; human neuroblastoma IMR-32 cells, 24 hours; percentage relative to the control
Procedure: as §1, §2, §3, §4, §5, §6

SMILES | melting point | other results
CCCN(CCC)CCc1ccc(OCc2ccc3ccccc3c2)cc1.Cl | 113 to 115 °C | 
CCCN(CCC)CCc1ccc(OCc2ccc(Cl)cc2Cl)cc1.Cl | 122 to 123 °C | 
CCCN(CCC)CCc1ccccc1OCc1ccc2ccccc2c1.Cl | 146 to 147 °C | 
CCCN(CCC)CCc1cccc(OCc2ccc3ccccc3c2)c1.Cl | 115 to 116 °C | 
CCCN(CCC)CCc1cccc(OCc2ccc(-c3ccccc3)cc2)c1.Cl | 108 to 110 °C | 
CCCN(CCC)CCc1cccc(OCc2ccc(Cl)cc2Cl)c1.Cl | 76 to 78 °C | 
CCCN(CCC)CCc1cccc(OCc2cccc3ccccc23)c1.Cl | 140 to 142 °C | 
O=C(NCCN1CCCCC1)c1ccc(OCc2ccc(-c3ccccc3)cc2)cc1 [Example 8, 4-(4-Biphenylylmethoxy)-N-(2-piperidinoethyl)benzamide] |  | Aβ1-42 (%) (amyloid-β protein Aβ1-42): 63%; penetration in brain (Penetration in brain): excellent penetration in brain; Aβ1-40 (%) (amyloid-β protein Aβ1-40): 39%

Now from value to compound, other results behind:

melting point | SMILES | other results
149 to 150 °C | CCCN(CCC)CCc1ccc(OCc2ccc(-c3ccccc3)cc2)cc1.Cl | 
247 to 252 °C (dec.) | O=C(NCCN1CCCCC1)c1ccc(NC(=O)c2ccc(-c3ccccc3)cc2)cc1 [Example 26, N-[4-{[2-(Piperidinoethyl)amino]carbonyl}phenyl](4-biphenylyl)carboxamide] | 
241 to 245 °C (dec.) | O=C(NCCN1CCCC1)c1ccc(NC(=O)c2ccc(-c3ccccc3)cc2)cc1 [Example 27] | 
